Assay results: patent publication US20050009094A1 (priority 2001, published 2005)

Legend:
PrP^Sc exposed neurons = conditions: cited from earlier work
14-3-3 gene expression = assay: Expression of 14-3-3 gene in G. cydonium after exposition to PCB118 (Northern and Western Blotting); assay type: in vivo, Geodia cydonium; conditions: 2 μg PCB 118/g wet weight, incubation 0.5 to 6 days
Source text: The analyses were accomplished by means of Northern Blotting [14-3-3 probe] (A) or Western Blotting [14-3-3 antibody] (B).
The employed method was PCR cloning.
The detection of expression of the 14-3-3 proteins on the protein level is accomplished by using antibodies. To this aim, one can either employ commercial antibodies (e.g. from the Calbiochem/Oncogene company) or antibodies raised against the recombinant invertebrate-14-3-3 protein from Geodia cydonium. […] The signals can again be quantified by using the chemiluminescence method. The tissue extracts can e.g. be prepared by homogenisation in a phosphate buffer containing 1 mM of EDTA and 1 mM of phenylmethylsulfonyl fluoride.
The 14-3-3-cDNA from the sea sponge Geodia cydonium was used as a gene probe for the detection of expression of the 14-3-3 proteins on the mRNA-level and the respective antibodies were used for determining the amount of protein. In the accomplished keeping experiments, PCB 118 was used as the model PCB.
1 ml of PCB118 (0.1 mg/ml in corn oil) were injected in 40 g sponge tissue. The samples were incubated in sea water for up to 6 days in 20 l aquariums at 17° C. with continuous aeration; the water was exchanged one time at day 2. Aliquot portions of the tissue (each about 200 mg) were withdrawn at the time zero or after an incubation period of 0.5; 1; 3; 5 and 6 days. […]

Structure (SMILES)	effect counteracting the neurotoxic peptide PrP106-126 (PrP^Sc exposed neurons)	effect on PrP^Sc exposed neurons (PrP^Sc exposed neurons)	extent of apoptosis caused by PrP106-126 (PrP^Sc exposed neurons)	expression of the 14-3-3 gene (mRNA and protein) (14-3-3 gene expression)
CCOC(=O)Nc1ccc(NCc2ccc(F)cc2)nc1N [Flupirtin]	cytoprotective effect	protective effect	reduces	
Clc1ccc(-c2cc(Cl)c(Cl)cc2Cl)cc1Cl [PCB118]				very high values
CC12CC3CC(C)(C1)CC(N)(C3)C2 [Memantin]		protective effect		
